In PMC7880554 (ACS chemical biology, 2016):

Molecular target: Culp1 (Rv1984c) (Mycobacterium tuberculosis, UniProt P9WP43)
Conditions: band identified by mass spectrometry; transposon mutant control

Culp1 (Rv1984c), sequence (P9WP43 33-217): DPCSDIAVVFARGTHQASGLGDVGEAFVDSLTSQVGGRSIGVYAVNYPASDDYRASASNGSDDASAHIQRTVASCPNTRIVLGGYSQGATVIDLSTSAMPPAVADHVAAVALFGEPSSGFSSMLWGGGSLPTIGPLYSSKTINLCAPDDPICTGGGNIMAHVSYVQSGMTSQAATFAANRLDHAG

CCCCCCCC(=O)OCOc1ccc2c(c1)C(C)(C)C1=C(Cl)C(=O)C(Cl)=CC1=N2 [DDAO-7-OME]
in-gel fluorogenic activity, native PAGE-resolved lysate: DDAO-7-OME provided the clearest Mtb banding patterns in these complex lysates and revealed Culp1 activity
